Data taken from patent US20130203805A1, “Methods for treating anemia using inhibitors of hypoxia-inducible factor (HIF) hydroxylase” (FIBROGEN, INC., priority 2001, published 2013).

Legend:
erythropoietin = assay: Dose response in vivo: serum erythropoietin (Example 3); set-up: species or system Sprague Dawley male rats; settings: rats; oral gavage 350 mg/kg on two days or 100 mg/kg daily days 1 to 7; within 1 day of treatment; FIG. 4A
Description: Twelve Sprague Dawley male rats (approx. 260 g) were obtained from Charles River Laboratories, Inc., and treated by oral gavage as follows: (1) Four rats were dosed daily for days 1 to 7 with 0.5% carboxymethyl cellulose (CMC; Sigma-Aldrich, St. Louis Mo.) (0 mg/kg), were not treated for days 8 to 14, and then were dosed daily for days 15 to 19 with 0.5% CMC (0 mg/kg); (2) four animals were treated on day 0 and day 3 with a total of 7 ml/kg/day of 5.0% compound C (50 mg/ml in 0.5% CMC) (350 mg/kg), were not treated days 8 to 14, and then were dosed daily for days 15 to 19 with 3% compound C: (30 mg/ml in 0.5% CMC) (60 mg/kg/day); and (3) four animals were treated daily for days 1 to 7 with a total volume of 4 ml/kg/day of 2.5% compound C (25 mg/ml in 0.5% CMC) (100 mg/kg), were not treated days 8 to 14, and then were dosed daily for days 15 to 19 with 3% compound C (60 mg/kg/day). Thus, groups (2) and (3) received a total of 700 mg compound/kg body weight over the first 7 days, no treatment from days 8 to 14, and then 60 mg/kg/day for another 5 days. Animals were monitored for change in body weight and signs of toxicity. Blood samples (2×0.5 ml) were collected on days 1, 3, 7, 10, 17 and 21 as follows. Animals were anesthetized with isoflurane and 0.5 ml of blood was collected from the tail vein of each animal into each of two MICROTAINER EDTA-2K tubes (Becton-Dickinson). […]

[1] = Hematocrit (Example 2, Experiment I); format: in vivo, Swiss Webster male mice; settings: mice; 200 mg/kg/day oral gavage 2.5 days; 4 h after final dose; relative to untreated controls; FIG. 2C
Description: (§1) Twelve Swiss Webster male mice (30-32 g) were obtained from Simonsen, Inc. (Gilroy Calif.), and treated by oral gavage two times per day for 2.5 days (5 doses) with a 4 ml/kg volume of either 0.5% carboxymethyl cellulose (CMC; Sigma-Aldrich, St. Louis Mo.) (0 mg/kg/day) or 2.5% Compound C (25 mg/ml in 0.5% CMC) (200 mg/kg/day). Four hours after the final dose, animals were anesthetized with isoflurane and two blood samples were collected from the abdominal vein. One blood sample was collected into a MICROTAINER serum separator tube (Becton-Dickinson, Franklin Lakes N.J.), and incubated at room temperature for 30 minutes, centrifuged at 8,000 rpm at 4° C. for 10 minutes. The serum fraction was then processed and analyzed for erythropoietin (EPO) expression using a QUANTIKINE immunoassay (R&D Systems) according to the manufacturer's instructions. The second blood sample was collected into a MICROTAINER EDTA-2K tube (Becton-Dickinson) for hematocrit analysis. Hematocrit was measured by drawing EDTA-blood into a 75 mm×1.1-12 mm I.D. capillary tube (Chase Scientific Glass, Inc., Rockwood Tenn.) to approximately ¾ length. One end of the tube was sealed with CRITOSEAL sealant (Sherwood Medical Company) and the tube was centrifuged in a J-503M MICROHEMATOCRIT centrifuge (Jorgensen Laboratories, Inc., Loveland Colo.) at 12,000 rpm for 5 minutes. Hematocrit was read against a reader card. […]

[2] = format: in vivo, Sprague Dawley male rats
Description: The ability of a compound of the invention to treat anemia associated with post-ischemic acute renal failure was assayed using a procedure described by Vaziri et al. (1994, Am J Physiol 266(3 Pt 2):[…]-6.) Fifteen Sprague Dawley male rats (280-300 g) were obtained from Charles River Laboratories. On day 0, rats were treated by intraperitoneal injection with a single dose of saline (control; n=3) at 8 ml/kg, or cisplatin (CP; Bedford Laboratories, Bedford Ohio) at either 7 mg/kg (7 ml/kg; n=6) or 10 mg/kg (10 ml/kg; n=6). Blood samples (0.2 ml) were collected on days 5, 9, and 16 as follows. […] Blood samples were processed for hematocrit as described above to determine the degree of anemia produced in each animal. […] Blood samples (0.5 ml) were collected as described above immediately prior to treatment and 4 days after treatment initiation. Blood samples were analyzed for CBC and reticulocyte counts as described above. On day 9 after initiation of oral treatment, a blood sample (0.1 ml) was collected and processed for hematocrit as described above.

erythropoietin (EPO) = assay: Serum/plasma erythropoietin level by immunoassay (Example 2, Experiment I); format: in vivo, Swiss Webster male mice; settings: mice; 200 mg/kg/day oral gavage 2.5 days; 4 h after final dose; relative to untreated controls; FIG. 2B
Description: as §1

O=C(O)CNC(=O)c1nc(Cl)c2ccccc2c1O [Compound C, [(1-chloro-4-hydroxy-isoquinoline-3-carbonyl)-amino]-acetic acid]
serum erythropoietin level (erythropoietin): significantly increased
hematocrit [1]: significantly increased
hematocrit levels versus normal control ([2]; rats initially exposed to 7 mg/kg CP, 2 ml/kg of 2.5% compound C oral once daily 5 days, day 9, FIG. 5A): at or above normal control values
number of circulating reticulocytes ([2]; rats, CP-treated, 2 ml/kg of 2.5% compound C oral once daily 5 days, FIG. 5B): also increased
hematocrit versus non-treated counterparts ([2]; rats, CP-treated, 2 ml/kg of 2.5% compound C oral once daily 5 days, day 9 post-treatment, FIG. 5A): significantly higher
hematocrit in CP-treated animals ([2]; rats, 2 ml/kg of 2.5% compound C oral once daily 5 days from day 19, 4 days after initiating treatment, FIG. 5A): increased
erythropoietin plasma level (erythropoietin (EPO)): significant increase
